Data published in patent US20150174144A1, “TETRACYCLINE COMPOUNDS FOR TREATING NEURODEGENERATIVE DISORDERS” (PARATEK PHARMACEUTICALS, INC., priority 2012, published 2015).
“And” between values parts separate entries of the source, which are not always exact repeats. Equal entries are not always repeated. Where two headings read alike, the source gives them in different places.

Tests used:
[1] = test system: animal models of MS and neuroprotection; test: Accepted animal models of MS and neuroprotection (Table 2); parameters: concentration or dose not given beside the values; settings: in vivo
[2] = biological target: T1, recombinant human matrix metalloproteinase-9 (MMP-9) (Homo sapiens, UniProt P14780); test: MMP-9 enzyme activity assay (cell-free); format: biochemical
T1 construct: an aliquot of active recombinant human matrix metalloproteinase-9 (MMP-9)(CalBioChem) was added; purchased CalBioChem
T1 sequence (P14780 107-707 limits assumed): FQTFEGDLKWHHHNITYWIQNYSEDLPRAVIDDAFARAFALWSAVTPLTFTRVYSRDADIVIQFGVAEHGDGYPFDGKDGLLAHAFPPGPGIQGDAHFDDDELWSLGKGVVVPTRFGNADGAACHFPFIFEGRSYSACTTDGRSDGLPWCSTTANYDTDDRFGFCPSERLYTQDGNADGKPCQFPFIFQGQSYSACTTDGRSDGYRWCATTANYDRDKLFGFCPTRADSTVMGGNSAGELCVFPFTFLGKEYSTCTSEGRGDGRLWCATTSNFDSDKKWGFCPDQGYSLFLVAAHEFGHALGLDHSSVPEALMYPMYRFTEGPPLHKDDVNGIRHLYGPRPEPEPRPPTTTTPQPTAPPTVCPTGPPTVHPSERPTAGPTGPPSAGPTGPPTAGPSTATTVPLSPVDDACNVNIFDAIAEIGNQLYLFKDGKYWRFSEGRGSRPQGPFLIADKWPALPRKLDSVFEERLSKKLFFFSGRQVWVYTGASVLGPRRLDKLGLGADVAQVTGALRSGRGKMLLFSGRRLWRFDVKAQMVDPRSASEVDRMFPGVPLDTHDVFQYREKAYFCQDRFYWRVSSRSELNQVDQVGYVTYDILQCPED
Description: Compound 1 was tested to determine specific anti-inflammatory characteristics. In vitro assays to assess the inhibition of substrate cleavage by matrix metalloproteinase 9 (MMP-9) and the inhibition of TNFα production by lipopolysaccharide (LPS)-activated macrophages were performed. MMP-9 activity was determined by fluorescence after incubation of recombinant MMP-9 with fluorescein-conjugated DQ gelatin for 90 min. TNFα production was determined by incubation of 10 ng/ml LPS with RAW264.7 macrophage cells for 24 h, followed by quantitation of TNFα in culture supernatant by ELISA.
This assay was designed to measure the degradation of substrate by purified enzyme. To a solution containing 2.5 μg/ml fluorescein-conjugated DQ gelatin (Invitrogen) in buffer (50 mM Tris-HCl, 150 mM NaCl, 5 mM CaCl2, 0.2 mM sodium azide, pH 7.6), tetracycline compounds were added at final concentrations ranging from 100 to 1 μM. Subsequently, an aliquot of active recombinant human matrix metalloproteinase-9 (MMP-9)(CalBioChem) was added to a final concentration of 0.05 μg/ml. The total volume of the reaction mixture was 200 μL and samples were contained in 96-well black plates (Corning). The mixture was incubated at room temperature in the dark for 85 min, after which the fluorescence was measured using a microplate reader. Samples containing no MMP-9 enzyme were used as negative controls and samples with enzyme and without compound were positive controls.

in vivo = settings: for Kp at 0.5 hr / Kp at 1 hr / Kp at 2 hr / Kp at 4 hr / concentration at 0.5 hr / concentration at 1 hr / concentration at 2 hr / concentration at 4 hr: ip, 10 mg/kg
Description: Compounds were administered via the indicated routes and blood samples were removed at various times up to 24 hr. Concentration of compound was determined by LC/MS.

[3] = test system: LPS-induced production of NO by J774A.1 macrophages; test: NO production assay, LPS-activated J774A.1 macrophages; format: cell-based; settings: Mus musculus, J774.A1; 10 ng/ml LPS, 20 hr
Description: The J774A.1 mouse macrophage cell line was grown to confluence in DMEM medium containing 10% fetal bovine serum (FBS). Cells were harvested into single-cell suspensions (by incubation on ice and agitation), seeded into 96-well plates at 1×10^5 cells/well (200 μL volume) and incubated (5% CO2, 37° C.) overnight. Compounds were added to the cells at final concentrations ranging from 50 to 1 μM and pre-incubated for 1 hr. Lipopolysaccharide (LPS) was added to the cells at a final concentration of 10 ng/ml. After incubation for 20 hr, culture supernatants were harvested and transferred to a new 96-well plate. Levels of LPS-induced NO in the supernatants were quantified by Greiss reagent (Active Motif) with supernatants from unstimulated cells serving as a negative control.

[4] = test system: cerebellar granule neurons; test: Glutamate-induced neurodegeneration in cerebellar granule neurons (MTT); format: cell-based, C57BL/6 mouse; settings: Mus musculus, Neuron
Description: The method for isolation of cerebellar granule neurons has been previously described in published studies. Neonate C57BL/6 mouse pups, 7-8 days old, are obtained. Heads are removed and rinsed in 70% alcohol and transfered to an 85 mm dish filled with PBS on ice. Heads are cut, the brains removed, and the cerebella dissected and placed in a 50 mm dish with PBS on ice. The meninges, choroids plexus and blood vessels are removed from the cerebellum and the cleaned organ is transferred to a 35 mm dish with Hank's buffered salt solution (HBSS) containing Ca^2+ and Mg^2+. Each cerebellum is cut into pieces and incubated with trypsin solution at 37° C. for 10 minutes, after which 0.5 mg/ml (final concentration) trypsin inhibitor and 0.1 mg/ml (final concentration) DNAse are added. After centrifugation, cerebellar fragments are resuspended in dissociation medium (HBSS with Ca^2+, Mg^2+, trypsin inhibitor, DNAse) and a single cell suspension generated by agitation with a Pasteur pipette. After the coarse debris settles, the supernatant (cell suspension) is passed through a cell strainer (40 μm, Becton Dickinson #1942501) into a 50 ml sterile tube and the cells centrifuged. Cells are washed and re-suspended in culture medium (BME Basal Medium containing 10% fetal bovine serum, 100 IU/ml penicillin/streptomycin, 10 mM HEPES, 25 mM KCl, 2 mM L-glutamine).
The cell suspension is transferred to poly-D-lysine-coated dishes and incubated for 25 min at 37° C. in 5% CO2. After incubation, the non-adherent cells are removed and counted with a hemocytometer. A suspension of 0.9×10^6 cells/ml is prepared in culture medium, and 100 μL volumes are added per well (250,000 cells/cm^2) in poly-D-Lysine coated 96-well plates. One day after plating, cytosine arabinoside (AraC) is added to a final concentration of 10 μM. After 6-8 days of in vitro culture, the neurons are ready to be used in the assay.
To test the activity of Compound 1 and minocycline, compounds were added to the neuron cultures at varying concentrations. Buffer was added to some cells as a negative control. After pre-incubation with compound for 30 minutes at 5% CO2, 37° C., glutamate was added at a final concentration of […] and the cells further incubated for 1 hour. Glutamate was not added to some cells as a positive control for cell survival. After the 1 hr period, cells were washed once with culture medium and 100 μL of fresh medium were added per well. Compounds were re-added to the cells and the cultures were incubated overnight at 5% CO2, 37° C. […] Spectrophotometric absorbance at wavelength 570 nm was measured using a microplate reader.
The MTT absorbance for non-stimulated cells was considered the 100% survival level.

[5] = Table 4, unit inferred, read-out: MMP-9 activity (cell-free)
[6] = Table 11, read-out: MMP-9 Activity (cell-free) IC50
[7] = Table 4, unit inferred, read-out: Neuroprotection (mouse CGN)
[8] = concentration at which 50% of the maximum response is observed, read-out: EC50, survival of glutamate-stimulated cerebellar granule neurons

Compound | % Inhibition Axon Loss [1] [%] | % Inhibition Clinical Score [1] [%] | % Inhibition Demyelination [1] [%] | % Inhibition Inflammation [1] [%] | IC50 [2, 5] [µM] | IC50 [2, 6] [µM] | AUC (in vivo; monkey, iv, 5 mg/kg) [µM·h] | Cmax (in vivo; monkey, iv, 5 mg/kg) [µM] | half-life (in vivo; monkey, iv, 5 mg/kg) [h] | AUC (in vivo; monkey, po, 5 mg/kg) [µM·h] | Cmax (in vivo; monkey, po, 5 mg/kg) [µM] | Tmax (in vivo; monkey, po, 5 mg/kg) [h] | bioavailability (in vivo; monkey, po, 5 mg/kg) [%] | AUC (in vivo; rat, po, 5 mg/kg) [µM·h] | Cmax (in vivo; rat, po, 5 mg/kg) [µM] | Tmax (in vivo; rat, po, 5 mg/kg) [h] | bioavailability (in vivo; rat, po, 5 mg/kg) [%] | IC50 [3] [µM] | EC50 [4, 7] [µM] | EC50 [4, 8] [µM] | other results
CCc1cc(N(C)C)c2c(c1O)C(=O)C1=C(O)[C@]3(O)C(=O)C(C(N)=O)=C(O)[C@@H](N(C)C)[C@@H]3C[C@@H]1C2 [Compound 1] | 70 | 65 | 69 | 74 | 29 | 32.7 | 70 | 28.5 | 5.7 | 46.7 | 8.6 | 3 | 66.9 | 14.3 | 1.25 | 2 | 26 | 30 | 2.6 ± 0.9 | 2.6 | Kp at 0.5 hr (in vivo; mouse, in vivo): 0.179; Kp at 1 hr (in vivo; mouse, in vivo): 0.284; Kp at 2 hr (in vivo; mouse, in vivo): 0.568; Kp at 4 hr (in vivo; mouse, in vivo): 1.17; concentration at 0.5 hr (in vivo; mouse, in vivo): 6860 ng/mL and 1230 ng/g; concentration at 1 hr (in vivo; mouse, in vivo): 6360 ng/mL and 1810 ng/g; concentration at 2 hr (in vivo; mouse, in vivo): 7020 ng/mL and 3990 ng/g; concentration at 4 hr (in vivo; mouse, in vivo): 3680 ng/mL and 4310 ng/g; half-life (in vivo; rat): 3.5 h; AUC (in vivo; rat, iv, 5 mg/kg): 54.4 µM·h; Cmax (in vivo; rat, iv, 5 mg/kg): 27.9 µM
CN(C)c1ccc(O)c2c1C[C@H]1C[C@H]3[C@H](N(C)C)C(O)=C(C(N)=O)C(=O)[C@@]3(O)C(O)=C1C2=O [Minocycline, minocycline, reference compound] | 38 | 40 | 34 | 43 | 43.2 | 43.2 | 55.8 | 29.9 | 10.4 | 44.6 | 4.4 | 3 | 80.1 | 3.6 | 0.4 | 1.7 | 30.7 | 46 ± 2.1 | 1.4 ± 0.1 | 1.4 | concentration at 0.5 hr (in vivo; brain): 138 ng/g; concentration at 1 hr (in vivo; brain): 380 ng/g; concentration at 2 hr (in vivo; brain): 317 ng/g; concentration at 4 hr (in vivo; brain): 327 ng/g; Kp at 0.5 hr (in vivo; brain/plasma): 0.095; Kp at 1 hr (in vivo; brain/plasma): 0.253; Kp at 2 hr (in vivo; brain/plasma): 0.508; Kp at 4 hr (in vivo; brain/plasma): 0.688; concentration at 0.5 hr (in vivo; plasma): 1450 ng/mL; concentration at 1 hr (in vivo; plasma): 1500 ng/mL; concentration at 2 hr (in vivo; plasma): 623 ng/mL; concentration at 4 hr (in vivo; plasma): 475 ng/mL; AUC (in vivo; rat, iv, 1 mg/kg): 2.4 µM·h; Cmax (in vivo; rat, iv, 1 mg/kg): 0.93 µM; half-life (in vivo; rat, iv, 1 mg/kg): 3.6 h
